According to patent publication US5210193A, “Piperazine derivatives” (American Cyanamid Company, priority 1990, dated 1993):
In brackets after ≈: the same amount, converted by molar mass. Read-outs that look alike come from different tables or passages of the source.

Columns and labels:
Test in all cases: in vitro antibacterial MIC, agar plate dilution
Type in all cases: cell-based
[1] = tested on: Serratia marcescens MOR 84-41; details: Serratia marcescens, MOR8441, 18 h, 35° C., read-out: MIC
Procedure, shortened: (§1)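 Agar plate dilution on Mueller-Hinton agar, inoculum approximately 10^4 CFU per organism applied with a Steers replicator. MIC (mcg/ml) is the lowest compound concentration inhibiting visible growth after 18 hours at 35° C.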

[2] = tested on: Staphylococcus aureus VGH 84-45; details: Staphylococcus aureus, VGH8445, 18 h, 35° C., read-out: MIC
Procedure, shortened: as §1

[3] = tested on: Escherichia coli VGH 84-19; details: 35° C.
Procedure, shortened: as §1

[4] = tested on: Enterobacter cloacae K 84-10; details: Enterobacter cloacae, K8410, 18 h, 35° C., read-out: MIC
Procedure, shortened: as §1

[5] = tested on: Streptococcus faecalis UCI 85-19; details: Enterococcus faecalis, UCI8519, 18 h, 35° C., read-out: MIC
Procedure, shortened: as §1

[6] = tested on: Escherichia coli CMC 84-50; details: Escherichia coli, CMC8450, 18 h, 35° C., read-out: MIC
Procedure, shortened: as §1

[7] = tested on: Streptococcus faecalis VGH 84-65; details: Enterococcus faecalis, VGH8465, 18 h, 35° C., read-out: MIC
Procedure, shortened: as §1

[8] = tested on: Escherichia coli MOR 84-20; details: 35° C.
Procedure, shortened: as §1

[9] = tested on: Klebsiella pneumoniae IO 83-5; details: Klebsiella pneumoniae, IO835, 18 h, 35° C., read-out: MIC
Procedure, shortened: as §1

[10] = tested on: Streptococcus faecalis CMC 83-120; details: Enterococcus faecalis, CMC83120, 18 h, 35° C., read-out: MIC
Procedure, shortened: as §1

[11] = tested on: Staphylococcus aureus VGH 84-47; details: 35° C.
Procedure, shortened: as §1

[12] = tested on: Serratia marcescens CMC 83-74; details: Serratia marcescens, CMC8374, 18 h, 35° C., read-out: MIC
Procedure, shortened: as §1

[13] = tested on: Providencia stuarti CMC 83-3; details: Providencia, CMC833, 18 h, 35° C., read-out: MIC
Procedure, shortened: as §1

[14] = tested on: Staphylococcus aureus Smith; details: Staphylococcus aureus, 18 h, 35° C., read-out: MIC
Procedure, shortened: as §1

[15] = tested on: Morganella morganii CMC 84-37; details: 35° C.
Procedure, shortened: as §1

Escherichia coli LL 311 = details: Escherichia coli, LL311, 18 h, 35° C., read-out: MIC
Procedure, shortened: as §1

[16] = tested on: Morganella morganii CMC 84-38; details: Morganella morganii, CMC8438, 18 h, 35° C., read-out: MIC
Procedure, shortened: as §1

[17] = tested on: Pseudomonas aeruginosa VGH 84-3; details: Pseudomonas aeruginosa, VGH843, 18 h, 35° C., read-out: MIC
Procedure, shortened: as §1

[18] = tested on: Staphylococcus aureus CMC 83-131; details: Staphylococcus aureus, CMC83131, 18 h, 35° C., read-out: MIC
Procedure, shortened: as §1

[19] = tested on: Morganella morganii MOR 84-45; details: Morganella morganii, MOR8445, 18 h, 35° C., read-out: MIC
Procedure, shortened: as §1

[20] = tested on: Staphylococcus aureus K 82-26; details: Staphylococcus aureus, K8226, 18 h, 35° C., read-out: MIC
Procedure, shortened: as §1

[21] = tested on: Enterobacter cloacae VGH 84-39; details: Enterobacter cloacae, VGH8439, 18 h, 35° C., read-out: MIC
Procedure, shortened: as §1

[22] = tested on: Serratia marcescens VGH 84-30; details: Serratia marcescens, VGH8430, 18 h, 35° C., read-out: MIC
Procedure, shortened: as §1

[23] = tested on: Escherichia coli CMC 84-11; details: Escherichia coli, CMC8411, 18 h, 35° C., read-out: MIC
Procedure, shortened: as §1

[24] = tested on: Serratia marcescens K 84-18; details: Serratia marcescens, K8418, 18 h, 35° C., read-out: MIC
Procedure, shortened: as §1

[25] = tested on: Pseudomonas aeruginosa K 84-16; details: Pseudomonas aeruginosa, K8416, 18 h, 35° C., read-out: MIC
Procedure, shortened: as §1

[26] = tested on: Enterobacter cloacae MOR 84-30; details: Enterobacter cloacae, MOR8430, 18 h, 35° C., read-out: MIC
Procedure, shortened: as §1

Citrobacter div. K 82-24 = details: Citrobacter, DIV.K8224, 18 h, 35° C., read-out: MIC
Procedure, shortened: as §1

[27] = tested on: Proteus rettgeri IO 83-21; details: Providencia rettgeri, IO8321, 18 h, 35° C., read-out: MIC
Procedure, shortened: as §1

[28] = tested on: Pseudomonas aeruginosa VGH 84-4; details: Pseudomonas aeruginosa, VGH844, 18 h, 35° C., read-out: MIC
Procedure, shortened: as §1

[29] = tested on: Streptococcus faecalis VGH 84-69; details: Enterococcus faecalis, VGH8469, 18 h, 35° C., read-out: MIC
Procedure, shortened: as §1

[30] = tested on: Streptococcus faecalis UCI 85-30; details: Enterococcus faecalis, UCI8530, 18 h, 35° C., read-out: MIC
Procedure, shortened: as §1

[31] = tested on: Proteus rettgeri CMC 84-41; details: Providencia rettgeri, CMC8441, 18 h, 35° C., read-out: MIC
Procedure, shortened: as §1

[32] = tested on: Morganella morganii VHG 84-12; details: Morganella morganii, VHG8412, 18 h, Morganella morganii VHG 84-12 (VGH 84-12 for Example 131), 35° C., read-out: MIC
Procedure, shortened: as §1

[33] = tested on: Pseudomonas aeruginosa LL-1244; details: Pseudomonas aeruginosa, LL1244, 18 h, 35° C., read-out: MIC
Procedure, shortened: as §1

[34] = tested on: Klebsiella pneumoniae MOR 84-24; details: Klebsiella pneumoniae, MOR8424, 18 h, 35° C., read-out: MIC
Procedure, shortened: as §1

[35] = tested on: Pseudomonas aeruginosa CMC 83-20; details: Pseudomonas aeruginosa, CMC8320, 18 h, 35° C., read-out: MIC
Procedure, shortened: as §1

[36] = tested on: Klebsiella pneumoniae CMC 84-31; details: Klebsiella pneumoniae, CMC8431, 18 h, 35° C., read-out: MIC
Procedure, shortened: as §1

[37] = tested on: Escherichia coli ATCC 25922; details: 35° C.
Procedure, shortened: as §1

| MIC [1] [µg/mL] | MIC [2] [µg/mL] | MIC [4] [µg/mL] | MIC [5] [µg/mL] | MIC [6] [µg/mL] | MIC [7] [µg/mL] | MIC [9] [µg/mL] | MIC [10] [µg/mL] | MIC [12] [µg/mL] | MIC [13] [µg/mL] | MIC [14] [µg/mL] | MIC (Escherichia coli LL 311) [µg/mL] | MIC [16] [µg/mL] | MIC [17] [µg/mL] | MIC [18] [µg/mL] | MIC [19] [µg/mL] | MIC [20] [µg/mL] | MIC [21] [µg/mL] | MIC [22] [µg/mL] | MIC [23] [µg/mL] | SMILES | further results |
| --- | --- | --- | --- | --- | --- | --- | --- | --- | --- | --- | --- | --- | --- | --- | --- | --- | --- | --- | --- | --- | --- |
| 4 (≈ 9.65 µM) | 0.12 (≈ 0.29 µM) | 2 (≈ 4.83 µM) | 4 (≈ 9.65 µM) | 2 (≈ 4.83 µM) | 2 (≈ 4.83 µM) | 4 (≈ 9.65 µM) | 4 (≈ 9.65 µM) | > 16 | > 16 | 0.06 (≈ 0.145 µM) | 0.5 (≈ 1.21 µM) | 2 (≈ 4.83 µM) | > 16 | 0.5 (≈ 1.21 µM) | 2 (≈ 4.83 µM) | 8 (≈ 19.3 µM) | 2 (≈ 4.83 µM) | 32 (≈ 77.2 µM) | 0.5 (≈ 1.21 µM) | CCn1cc(C(=O)O)c(=O)c2cc(F)c(N3CCNC(c4ccncc4)C3)c(F)c21 (stereo not drawn) [Example 127] | MIC ([3]; Escherichia coli, VGH8419, 18 h, read-out: MIC): 1 µg/mL (≈ 2.41 µM); MIC ([8]; Escherichia coli, MOR8420, 18 h, read-out: MIC): 1 µg/mL (≈ 2.41 µM); MIC ([11]; Staphylococcus aureus, VGH8447, 18 h, read-out: MIC): 0.25 µg/mL (≈ 0.603 µM); MIC ([15]; Morganella morganii, CMC8437, 18 h, read-out: MIC): 0.5 µg/mL (≈ 1.21 µM); MIC [24]: 1 µg/mL (≈ 2.41 µM); MIC [25]: > 16 µg/mL; MIC [26]: 8 µg/mL (≈ 19.3 µM); MIC (Citrobacter div. K 82-24): 2 µg/mL (≈ 4.83 µM); MIC [27]: 4 µg/mL (≈ 9.65 µM); MIC [28]: 16 µg/mL (≈ 38.6 µM); MIC [29]: 4 µg/mL (≈ 9.65 µM); MIC [30]: 8 µg/mL (≈ 19.3 µM); MIC [31]: 1 µg/mL (≈ 2.41 µM); MIC [32]: 4 µg/mL (≈ 9.65 µM); MIC [33]: 16 µg/mL (≈ 38.6 µM); MIC [34]: 4 µg/mL (≈ 9.65 µM); MIC [35]: > 16 µg/mL; MIC [36]: 2 µg/mL (≈ 4.83 µM) |
| 1 (≈ 2.45 µM) | 0.06 (≈ 0.147 µM) | 0.12 (≈ 0.294 µM) | 2 (≈ 4.9 µM) | 0.5 (≈ 1.22 µM) | 1 (≈ 2.45 µM) | 1 (≈ 2.45 µM) | 4 (≈ 9.79 µM) | > 16 | > 16 | 0.06 (≈ 0.147 µM) | 0.06 (≈ 0.147 µM) | 0.5 (≈ 1.22 µM) | > 16 | 0.5 (≈ 1.22 µM) | 0.5 (≈ 1.22 µM) | 4 (≈ 9.79 µM) | 0.5 (≈ 1.22 µM) | 8 (≈ 19.6 µM) | 0.06 (≈ 0.147 µM) | O=C(O)c1cn(C2CC2)c2cc(N3CCNC(c4ccccn4)C3)c(F)cc2c1=O (stereo not drawn) [Example 128, 1-Cyclopropyl-6-fluoro-1.4-dihydro-4-oxo-7-[3-(2-pyridinyl) -1-piperazinyl]-3-quinolinecarboxylic acid] | MIC ([3]; 18 hours): 0.25 µg/mL (≈ 0.612 µM); MIC ([8]; 18 hours): 0.25 µg/mL (≈ 0.612 µM); MIC ([37]; 18 hours): 0.06 µg/mL (≈ 0.147 µM); MIC ([37]; Escherichia coli, ATCC25922, 18 h, read-out: MIC): 0.03 µg/mL (≈ 0.0735 µM); MIC ([11]; 18 hours): 0.25 µg/mL (≈ 0.612 µM); MIC ([15]; 18 hours): 0.25 µg/mL (≈ 0.612 µM); MIC [24]: 0.5 µg/mL (≈ 1.22 µM); MIC [25]: 16 µg/mL (≈ 39.2 µM); MIC [26]: 1 µg/mL (≈ 2.45 µM); MIC (Citrobacter div. K 82-24): 0.25 µg/mL (≈ 0.612 µM); MIC [27]: 1 µg/mL (≈ 2.45 µM); MIC [28]: 8 µg/mL (≈ 19.6 µM); MIC [29]: 4 µg/mL (≈ 9.79 µM); MIC [30]: 8 µg/mL (≈ 19.6 µM); MIC [31]: 0.12 µg/mL (≈ 0.294 µM); MIC [32]: 1 µg/mL (≈ 2.45 µM); MIC [33]: 8 µg/mL (≈ 19.6 µM); MIC [34]: 1 µg/mL (≈ 2.45 µM); MIC [35]: 16 µg/mL (≈ 39.2 µM); MIC [36]: 0.5 µg/mL (≈ 1.22 µM) |
